Measurements taken from ChEMBL document CHEMBL1201862, “PubChem BioAssay data set” (2004).
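These data come from cells grown in 96-well plates and exposed to compound for 48 hours at five concentrations. GI50 = concentration required for 50% inhibition of growth.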 Active and inactive are the calls of the source. Rule as the data show it: active = GI50 up to about 1.1 µM and inactive = higher.

Assays:
Assay in all cases: NCI-60 cell line screen, 48 h
HCT-15 = test system: HCT-15
A498 = test system: A498
SK-MEL-5 = test system: SK-MEL-5
IGROV-1 = test system: IGROV-1
UO-31 = test system: UO-31
SK-OV-3 = test system: SK-OV-3
OVCAR-3 = test system: OVCAR-3
SR = test system: SR
KM12 = test system: KM12
K562 = test system: K562
T47D = test system: T47D
BT-549 = test system: BT-549
NCI-H23 = test system: NCI-H23
SK-MEL-2 = test system: SK-MEL-2
SNB-75 = test system: SNB-75
COLO 205 = test system: COLO 205
ACHN = test system: ACHN
HT-29 = test system: HT-29
LOX IMVI = test system: LOX IMVI
TK-10 = test system: TK-10
DU-145 = test system: DU-145
EKVX = test system: EKVX
SNB-19 = test system: SNB-19
MOLT-4 = test system: MOLT-4
RXF 393 = test system: RXF 393
MCF7 = test system: MCF7
NCI/ADR-RES = test system: NCI/ADR-RES
786-0 = test system: 786-0
HOP-92 = test system: HOP-92
Malme-3M = test system: Malme-3M
PC-3 = test system: PC-3
HOP-62 = test system: HOP-62
UACC-62 = test system: UACC-62
Hs-578T = test system: Hs-578T
OVCAR-8 = test system: OVCAR-8
NCI-H460 = test system: NCI-H460
SN12C = test system: SN12C
OVCAR-4 = test system: OVCAR-4
HCT-116 = test system: HCT-116
SF-295 = test system: SF-295
MDA-MB-435 = test system: MDA-MB-435
RPMI-8226 = test system: RPMI-8226
CAKI-1 = test system: CAKI-1
M14 = test system: M14
SF-539 = test system: SF-539
OVCAR-5 = test system: OVCAR-5
A549 = test system: A549
UACC-257 = test system: UACC-257
NCI-H522 = test system: NCI-H522
SW-620 = test system: SW-620
MDA-N = test system: MDA-N
U-251 = test system: U-251
SF-268 = test system: SF-268
SK-MEL-28 = test system: SK-MEL-28
HL-60 = test system: HL-60
MDA-MB-231 = test system: MDA-MB-231
CCRF-CEM = test system: CCRF-CEM
NCI-H226 = test system: NCI-H226

In the case of `Cn1c(N/N=C/c2ccc(Cl)cc2)nc(-c2ccc(Cl)cc2)c(C#N)c1=O`, the GI50 (HCT-15) is reported as 31.1 µM, the GI50 (A498) is reported as 32.1 µM (inactive) and the GI50 (SK-MEL-5) is reported as 45.1 µM (inactive). For the same compound, the GI50 (IGROV-1) was 6.73 µM (inactive), the GI50 (UO-31) was 16 µM (inactive) and the GI50 (SK-OV-3) was > 100 µM (inactive). For the same compound, the GI50 (OVCAR-3) was 16.4 µM (inactive), the GI50 (SR) was 2.26 µM (inactive) and the GI50 (KM12) was 22.6 µM (inactive). For the same compound, the GI50 (K562) was > 100 µM (inactive), the GI50 (T47D) was > 100 µM (inactive) and the GI50 (BT-549) was 21.8 µM (inactive). The GI50 (NCI-H23) was 18.7 µM (inactive), the GI50 (SK-MEL-2) was 10.5 µM (inactive) and the GI50 (SNB-75) was 25.3 µM (inactive). For the same compound, the GI50 (COLO 205) was 47 µM (inactive), the GI50 (ACHN) was 61.5 µM (inactive) and the GI50 (HT-29) was 41.1 µM (inactive). For the same compound, the GI50 (LOX IMVI) was 25.2 µM (inactive), the GI50 (TK-10) was 29 µM (inactive) and the GI50 (DU-145) was 22.5 µM (inactive). The GI50 (EKVX) was 25.6 µM (inactive), the GI50 (SNB-19) was > 100 µM (inactive) and the GI50 (MOLT-4) was 44.7 µM (inactive). The GI50 (RXF 393) was 22.8 µM (inactive), the GI50 (MCF7) was 21.1 µM (inactive) and the GI50 (NCI/ADR-RES) was > 100 µM (inactive). The GI50 (786-0) was 15.3 µM (inactive), the GI50 (HOP-92) was 22.3 µM (inactive) and the GI50 (Malme-3M) was 24.2 µM (inactive). The GI50 (PC-3) was 26.8 µM (inactive), the GI50 (HOP-62) was 12 µM (inactive) and the GI50 (UACC-62) was 22 µM (inactive). For the same compound, the GI50 (Hs-578T) was 30.3 µM (inactive), the GI50 (OVCAR-8) was 14.6 µM (inactive) and the GI50 (NCI-H460) was 27 µM (inactive). The GI50 (SN12C) was 44.1 µM (inactive), the GI50 (OVCAR-4) was 23.8 µM (inactive) and the GI50 (HCT-116) was 13.5 µM (inactive). For the same compound, the GI50 (SF-295) was 17.5 µM (inactive), the GI50 (MDA-MB-435) was 29.9 µM (inactive) and the GI50 (RPMI-8226) was 33.3 µM (inactive). For the same compound, the GI50 (CAKI-1) was 47 µM (inactive), the GI50 (M14) was 20 µM (inactive) and the GI50 (SF-539) was 21.8 µM (inactive). For the same compound, the GI50 (OVCAR-5) was 23.8 µM (inactive), the GI50 (A549) was 17.8 µM (inactive) and the GI50 (UACC-257) was 72.3 µM (inactive). The GI50 (NCI-H522) was 10.9 µM (inactive), the GI50 (SW-620) was 31 µM (inactive) and the GI50 (MDA-N) was 53.2 µM (inactive). For the same compound, the GI50 (U-251) was 29.9 µM (inactive), the GI50 (SF-268) was 35.4 µM (inactive) and the GI50 (SK-MEL-28) was 37.8 µM (inactive). The GI50 (HL-60) was 44.7 µM (inactive), the GI50 (MDA-MB-231) was 22.4 µM (inactive) and the GI50 (CCRF-CEM) was 25.4 µM (inactive).
For `Cc1nn(-c2ccccc2)c2c1C(c1ccc(Cl)cc1)NC(=S)N2` (centres undefined), the GI50 (HCT-15) was 17.5 µM, the GI50 (A498) was 23.1 µM (inactive) and the GI50 (SK-MEL-5) was 20.3 µM (inactive). The GI50 (IGROV-1) was 12.6 µM (inactive), the GI50 (UO-31) was 15 µM (inactive) and the GI50 (SK-OV-3) was 22.9 µM (inactive). For the same compound, the GI50 (OVCAR-3) was 32.4 µM (inactive), the GI50 (SR) was 36.6 µM (inactive) and the GI50 (KM12) was 23.1 µM (inactive). The GI50 (K562) was 36.1 µM (inactive), the GI50 (NCI-H226) was 25.9 µM (inactive) and the GI50 (T47D) was > 100 µM (inactive). For the same compound, the GI50 (BT-549) was 25.9 µM (inactive), the GI50 (NCI-H23) was 18.9 µM (inactive) and the GI50 (SK-MEL-2) was 17.5 µM (inactive). For the same compound, the GI50 (SNB-75) was 48.5 µM (inactive), the GI50 (COLO 205) was 17.2 µM (inactive) and the GI50 (ACHN) was 20.7 µM (inactive). For the same compound, the GI50 (HT-29) was 30.5 µM (inactive), the GI50 (LOX IMVI) was 16.3 µM (inactive) and the GI50 (TK-10) was 18.7 µM (inactive). For the same compound, the GI50 (DU-145) was 88.9 µM (inactive), the GI50 (EKVX) was 25.8 µM (inactive) and the GI50 (SNB-19) was 28.6 µM (inactive). The GI50 (MOLT-4) was 38.6 µM (inactive), the GI50 (RXF 393) was 15.7 µM (inactive) and the GI50 (MCF7) was 28.4 µM (inactive). The GI50 (NCI/ADR-RES) was 24.3 µM (inactive), the GI50 (786-0) was 15.6 µM (inactive) and the GI50 (HOP-92) was 7.18 µM (inactive). For the same compound, the GI50 (Malme-3M) was 28.2 µM (inactive), the GI50 (PC-3) was 18.9 µM (inactive) and the GI50 (HOP-62) was 16.1 µM (inactive). The GI50 (UACC-62) was 22.3 µM (inactive), the GI50 (Hs-578T) was 29 µM (inactive) and the GI50 (OVCAR-8) was 22.5 µM (inactive). The GI50 (NCI-H460) was 23 µM (inactive), the GI50 (SN12C) was 19.1 µM (inactive) and the GI50 (OVCAR-4) was 54.5 µM (inactive). The GI50 (HCT-116) was 20 µM (inactive), the GI50 (SF-295) was 24.5 µM (inactive) and the GI50 (MDA-MB-435) was 21.5 µM (inactive). For the same compound, the GI50 (RPMI-8226) was 19.1 µM (inactive), the GI50 (CAKI-1) was 27.2 µM (inactive) and the GI50 (M14) was 21.9 µM (inactive). For the same compound, the GI50 (SF-539) was 18.5 µM (inactive), the GI50 (OVCAR-5) was 27.5 µM (inactive) and the GI50 (A549) was 24.6 µM (inactive). The GI50 (UACC-257) was 36.6 µM (inactive), the GI50 (NCI-H522) was 14 µM (inactive) and the GI50 (SW-620) was 23 µM (inactive). The GI50 (MDA-N) was 29.4 µM (inactive), the GI50 (U-251) was 19.5 µM (inactive) and the GI50 (SF-268) was 25.8 µM (inactive). The GI50 (HL-60) was 31.9 µM (inactive), the GI50 (MDA-MB-231) was 16.5 µM (inactive) and the GI50 (CCRF-CEM) was 20.9 µM (inactive).
